From US20190343780A1, “LOW DOSE DRUG COMBINATIONS FOR USE IN PREVENTING AND TREATING NEURONAL DAMAGE” (priority 2016, published 2019)
Like-named read-outs stand apart in the source and are kept apart here.

Tests used:
[1] = intravenous injection during the first 12 hours after stroke, cited from earlier work
[2] = system: rats with hemic hypoxia (sodium nitrite); test: Hemic hypoxia in rats (sodium nitrite 80 mg/kg), oral treatment; format: in vivo, rat; details: 40 minutes before sodium nitrite
Description: Table 5 summarizes the anti-hypoxic and neuroprotective effects of such treatments.
Rats were treated as in Example 5. Table 6 summarizes the neuroprotective effect of such treatments.

[3] = system: rats with focal cerebral ischemia; details: cited from earlier work
[4] = system: rats with chronic kainate degeneration of the brain (AMPA/kainate receptors); test: Chronic kainate degeneration in rats (kainic acid 12 mg/kg I.M.), treatment I.M.; format: in vivo, rat; details: for Chronic Kainate lethality in rats (%) / Rats with heavy neurologic disturbances (%) / Rats with large weight loss (%): I.M.; for Chronic Kainate lethality in rats (%): 2 weeks after kainate; for Rats with heavy neurologic disturbances (%): score 3 to 5 points; for Dose with significant neuroprotective effect: text summary of Table 3 (NMDA lethality and kainate degeneration)
Description: Table 3 summarizes the neuroprotective effect of such treatments.
Rats were treated as in Example 3. Table 4 summarizes the neuroprotective effect of such treatments.

[5] = system: mice, toxic stimulation of NMDA receptors of brain
Description: Mice were I.P. administered with 250 mg/kg N-Methyl-D-aspartic acid (NMDA), a neurotoxin causing clonic-tonic seizure and death in 100% of animals by toxic stimulating of NMDA receptors of brain (Leander et al., Brain Res., 1988, Vol. 448 (1), pages 115-120). Rats were I.M. administered with 12 mg/kg Kainic acid to achieve chronic kainate degeneration of the brain by stimulation of AMPA/kainate receptors (Serdyuk et al., Bull. Exp. Biol. Med., 2014, Vol. 157(1), pages 15-17). Chronic kainate degeneration leads to chronic kainate lethality, neurologic disturbances and large weight loss (Serdyuk et al., Bull. Exp. Biol. Med., 2014, Vol. 157(1), pages 15-17).
Animals were then treated with deionized water (control), memantine, epinephrine or combinations of memantine and epinephrine, which were I.P. or I.M administered, as indicated.
Rats were treated as in Example 3.

[6] = system: mice with asphyctic hypoxia; test: Asphyctic hypoxia in mice (sealed 100 cm^3 glass chamber), treatment I.P.; format: in vivo; details: for ED50: Mus musculus, ip, Dose increasing the life of mice by 50%, combination: memantine dose, read-out: Asphyctic hypoxia (ED50), mg/kg, I.P. admin.
Description: (§1) Rats were intra-muscularly (I.M.) administered with 80 mg/kg sodium nitrite to achieve hemic hypoxia (Serdiuk et al., Eksp. Klin. Farmakol., 2000, Vol. 63(6), pages 3-8). Mice were caged in a 100 cm^3 sealed glass chamber to achieve asphyctic hypoxia, which simulates cerebral ischemia (Serdiuk et al., Eksp. Klin. Farmakol., 2000, Vol. 63(6), pages 3-8; Khalili et al., Eur. Rev. Med. Pharmacol. Sci., 2015, Vol. 19(17), pages 3282-3285).
(§2) Rats and mice were treated as in Example 1.

[7] = system: rats with hemic hypoxia (sodium nitrite); test: Hemic hypoxia in rats (sodium nitrite 80 mg/kg I.M.), treatment I.M.; format: in vivo, rat; details: for ED50: Rattus norvegicus, im; for ED50 / Dose with significant anti-hypoxic effect: combination: memantine dose; for Dose with significant anti-hypoxic effect: text summary of Table 1 (hemic and asphyctic hypoxia)
Description: as §1, §2

[8] = cited from earlier work
[9] = system: rats with chronic kainate degeneration of the brain (AMPA/kainate receptors); test: Chronic kainate degeneration in rats (kainic acid 12 mg/kg), oral treatment; format: in vivo, rat; details: for Chronic kainate lethality in rats, % per group: 2 weeks after kainate; for Rats with heavy neurological diseases (%): score 3 to 5 points; for ED50: Rattus norvegicus
Description: Rats were either orally administered with 80 mg/kg sodium nitrite to achieve hemic hypoxia, as explained In Example 1, or with 12 mg/kg Kainic acid to achieve chronic kainate degeneration of the brain by stimulation of AMPA/kainate receptors.

[10] = Dose increasing the life of rats by 50%, read-out: Hemic hypoxia (ED50), mg/kg, I.M. admin.
[11] = text summary of Table 2, span over hemic and asphyctic hypoxia, read-out: ED50, anti-hypoxic effect
[12] = Dose 5 mg/kg (combination: memantine dose)
[13] = Dose 10 mg/kg (combination: memantine dose)

CNC[C@H](O)c1cccc(O)c1 [Phenylephrine, phenylephrine]
Cerebral blood flow [1]: significant improvement in cerebral blood flow
Blood pressure after induced hypertension ([1]; from 100-110 mm): 160-170 mm
Hemic hypoxia, life of rats (min), Oral admin. ([2]; Dose 0.02 mg/kg): 60 ± 7 min
Hemic hypoxia, life of rats (min), Oral admin. ([2]; Dose 0.05 mg/kg): 62 ± 9 min
Hemic hypoxia, life of rats (min), Oral admin. ([2]; Dose 0.1 mg/kg): 67 ± 10 min
Hemic hypoxia, life of rats (min), Oral admin. ([2]; Dose 0.5 mg/kg): 77 ± 12 min
Hemic hypoxia, life of rats (min), Oral admin. ([2]; Dose 1.0 mg/kg (combination: memantine dose)): 88 ± 14 ^1 min
Effect on infarction and neurological damage ([3]; intravenous administration before ligation of the middle cerebral artery): prevented infarction development and reduced neurological damage

CNC[C@H](O)c1ccc(O)c(O)c1 [Epinephrine, epinephrine]
Chronic Kainate lethality in rats (%) ([4]; Dose 0.01 mg/kg): 90%
Rats with heavy neurologic disturbances (%) ([4]; Dose 0.01 mg/kg, 7-14 days after kainate): 100 ^ %
Rats with large weight loss (%) ([4]; Dose 0.01 mg/kg, underweight more than 30%, 7-14 days after kainate): 100 ^ %
Chronic Kainate lethality in rats (%) ([4]; Dose 0.02 mg/kg): 80%
Rats with heavy neurologic disturbances (%) ([4]; Dose 0.02 mg/kg, 7-14 days after kainate): 90 ^ %
Rats with large weight loss (%) ([4]; Dose 0.02 mg/kg, underweight more than 30%, 7-14 days after kainate): 80 ^ %
Chronic Kainate lethality in rats (%) ([4]; Dose 0.1 mg/kg): 20 ^1%
Rats with heavy neurologic disturbances (%) ([4]; Dose 0.1 mg/kg, 7-14 days after kainate): 30 ^1%
Rats with large weight loss (%) ([4]; Dose 0.1 mg/kg, underweight more than 30%, 7-14 days after kainate): 20 ^2%
Chronic Kainate lethality in rats (%) ([4]; Dose 0.2 mg/kg): 0 ^2%
Rats with heavy neurologic disturbances (%) ([4]; Dose 0.2 mg/kg, 7-14 days after kainate): 10 ^2%
Rats with large weight loss (%) ([4]; Dose 0.2 mg/kg, underweight more than 30%, 7-14 days after kainate): 0 ^2%
Dose with significant neuroprotective effect ([4]; combination: memantine dose): ≥ 0.1 mg/kg
Acute NMDA lethality in mice (%), I.P. admin. ([5]; Dose 0.01 mg/kg): 100 ^ %
Acute NMDA lethality in mice (%), I.P. admin. ([5]; Dose 0.02 mg/kg): 100 ^ %
Acute NMDA lethality in mice (%), I.P. admin. ([5]; Dose 0.1 mg/kg): 30 ^1%
Acute NMDA lethality in mice (%), I.P. admin. ([5]; Dose 0.2 mg/kg): 10 ^2%
Asphyctic hypoxia, mice life duration (sec), I.P. admin. ([6]; Dose 0.01 mg/kg): 711 ± 79 s
Asphyctic hypoxia, mice life duration (sec), I.P. admin. ([6]; Dose 0.02 mg/kg): 750 ± 90 s
Asphyctic hypoxia, mice life duration (sec), I.P. admin. ([6]; Dose 0.1 mg/kg): 990 ± 123 s
Asphyctic hypoxia, mice life duration (sec), I.P. admin. ([6]; Dose 0.2 mg/kg): 1250 ± 155 ^1 sec
ED50 [6]: 0.12 ± 0.02 mg/kg
Hemic hypoxia, rat life duration (min), I.M. admin. ([7]; Dose 0.01 mg/kg): 63 ± 7 ^ min
Hemic hypoxia, rat life duration (min), I.M. admin. ([7]; Dose 0.02 mg/kg): 69 ± 8 ^ min
Hemic hypoxia, rat life duration (min), I.M. admin. ([7]; Dose 0.1 mg/kg): 113 ± 16 ^2 min
Hemic hypoxia, rat life duration (min), I.M. admin. ([7]; Dose 0.2 mg/kg): 122 ± 19 ^2 min
ED50 [7, 10]: 0.06 ± 0.01 mg/kg
ED50 [7, 11]: 0.06 to 0.12 mg/kg
Dose with significant anti-hypoxic effect [7]: ≥ 0.1 mg/kg

CC12CC3CC(C)(C1)CC(N)(C3)C2 [Memantine, memantine]
Chronic Kainate lethality in rats (%) [4, 12]: 90%
Rats with heavy neurologic disturbances (%) ([4]; Dose 5 mg/kg (combination: memantine dose), 7-14 days after kainate): 90 ^ %
Rats with large weight loss (%) ([4]; Dose 5 mg/kg (combination: memantine dose), underweight more than 30%, 7-14 days after kainate): 90 ^ %
Chronic Kainate lethality in rats (%) [4, 13]: 70%
Rats with heavy neurologic disturbances (%) ([4]; Dose 10 mg/kg (combination: memantine dose), 7-14 days after kainate): 80 ^ %
Rats with large weight loss (%) ([4]; Dose 10 mg/kg (combination: memantine dose), underweight more than 30%, 7-14 days after kainate): 70 ^ %
Chronic Kainate lethality in rats (%) ([4]; Dose 20 mg/kg): 40 ^1%
Rats with heavy neurologic disturbances (%) ([4]; Dose 20 mg/kg, 7-14 days after kainate): 50 ^1%
Rats with large weight loss (%) ([4]; Dose 20 mg/kg, underweight more than 30%, 7-14 days after kainate): 40 ^1%
ED50 ([4]; Rattus norvegicus, im, read-out: Dose reducing the number of rats with a large deficit of weight by 50% (ED50), mg/kg, I.M. admin., underweight more than 30%, 7-14 days after kainate, combination: memantine dose): 17.6 ± 2.4 mg/kg
Dose with significant neuroprotective effect ([4]; combination: memantine dose): 20 mg/kg
Hemic hypoxia, life of rats (min), Oral admin. [2, 12]: 62 ± 7 min
Hemic hypoxia, life of rats (min), Oral admin. [2, 13]: 65 ± 9 min
Hemic hypoxia, life of rats (min), Oral admin. ([2]; Dose 20 mg/kg): 73 ± 11 min
Effect on brain injury and neurological disorders ([3]; prophylactic administration, 20 mg/kg): prevented injury of the brain and reduced neurological disorders
Acute NMDA lethality in mice (%), I.P. admin. [5, 12]: 100 ^ %
Acute NMDA lethality in mice (%), I.P. admin. [5, 13]: 60 ^ %
Acute NMDA lethality in mice (%), I.P. admin. ([5]; Dose 20 mg/kg): 16 ^1%
Asphyctic hypoxia, mice life duration (sec), I.P. admin. [6, 12]: 850 ± 80 s
Asphyctic hypoxia, mice life duration (sec), I.P. admin. [6, 13]: 936 ± 93 s
Asphyctic hypoxia, mice life duration (sec), I.P. admin. ([6]; Dose 20 mg/kg): 1070 ± 114 ^1 sec
ED50 [6]: 19.9 ± 2.8 mg/kg
Neurological and cognitive function of stroke patients ([8]; 20 mg for 6 months, subacute and recovery phase of stroke): significantly improved neurological and cognitive function
Side effects of prolonged use at a high dose ([8]; prolonged use, high dose): development of agitation, insomnia, irritability, and psychosis
Hemic hypoxia, rat life duration (min), I.M. admin. [7, 12]: 63 ± 5 ^ min
Hemic hypoxia, rat life duration (min), I.M. admin. [7, 13]: 77 ± 8 ^ min
Hemic hypoxia, rat life duration (min), I.M. admin. ([7]; Dose 20 mg/kg): 86 ± 9 ^1 min
ED50 [7, 10]: 18.2 ± 2.3 mg/kg
ED50 [7, 11]: 18 to 20 mg/kg
Dose with significant anti-hypoxic effect [7]: 20 mg/kg
Chronic kainate lethality in rats, % per group ([9]; Dose 5 mg/kg (combination: memantine dose), oral): 90%
Rats with heavy neurological diseases (%) ([9]; Dose 5 mg/kg (combination: memantine dose), oral, 7-14 days after kainate): 90%
Rats with large weight loss (%) ([9]; Dose 5 mg/kg (combination: memantine dose), oral, underweight more than 30%, 7-14 days after kainate): 90%
Chronic kainate lethality in rats, % per group ([9]; Dose 10 mg/kg (combination: memantine dose), oral): 80%
Rats with heavy neurological diseases (%) ([9]; Dose 10 mg/kg (combination: memantine dose), oral, 7-14 days after kainate): 80%
Rats with large weight loss (%) ([9]; Dose 10 mg/kg (combination: memantine dose), oral, underweight more than 30%, 7-14 days after kainate): 70%
Chronic kainate lethality in rats, % per group ([9]; Dose 20 mg/kg, oral): 60% ^3
Rats with heavy neurological diseases (%) ([9]; Dose 20 mg/kg, oral, 7-14 days after kainate): 70%
Rats with large weight loss (%) ([9]; Dose 20 mg/kg, oral, underweight more than 30%, 7-14 days after kainate): 60% ^3
ED50 ([9]; read-out: Dose decreasing the number of rats with large weight loss by 50% (ED50), mg/kg, Oral admin., underweight more than 30%, 7-14 days after kainate, combination: memantine dose): 18.8 ± 2.4 mg/kg
ED50 ([9]; text summary of Table 6, span over hemic hypoxia and kainate endpoints, oral, combination: memantine dose, read-out: ED50, anti-hypoxic and neuroprotective effects): 18 to 20 mg/kg
Dose with significant neuroprotective effects ([9]; text summary of Table 5, oral, combination: memantine dose): 20 mg/kg
